Experimental data as given in US20180200279A1, “INHIBITION OF HSV-1-ASSOCIATED CORNEAL NEOVASCULARIZATION USING INHIBITORS OF CYCLIN-DEPENDENT KINASE 9” (XAVIER UNIVERSITY OF LOUISIANA, priority 2014, published 2018).

Columns and labels:
[1] = test system: HSV-1; test: In vitro viral inhibition (plaque) assay in CV-1 cells; assay type: cell-based
Protocol: Numbers of plaque-forming units (PFU) were determined in a standard plaque assay procedure using CV-1 cells.
The HSV-1 strain employed was 17 syn+. Before inoculation, numbers of plaque-forming units (PFU) were determined in a standard plaque assay procedure using CV-1 cells. Pooled primary human umbilical vein endothelial cells (HUVEC) were obtained from Lonza (Basel, Switzerland) and were cultured in Medium 199 (Life Technologies, Carlsbad, Calif.) supplemented with 20% heat-inactivated FBS, penicillin G (100 U/ml), streptomycin ([…]), 2 mM L-glutamine and 1:100 endothelial cell growth supplement (ECGS, BD Biosciences, Bedford, Mass.) on tissue culture plates coated with 0.2% gelatin up to passage 6. Cells were sub-passaged or harvested when they reached ˜80% confluence. For periods of serum-deprivation, HUVEC were incubated for 4 or 16 hours in serum-starvation medium (SSM) containing Medium 199 without phenol red or ECGS but containing 0.5% FBS unless otherwise indicated. In vitro viral inhibition assays with CV-1 cells were performed as previously described (Gong E Y. Methods for screening and profiling inhibitors of herpes simplex viruses. Methods Mol Biol. 1030:303-313. 2013).

[2] = test system: HSV-1 17syn+; test: Real-time PCR of HSV-1 DNA on ocular swabs of infected mice; assay type: in vivo, Balb/c mice; conditions: day 25 post infection; 1% TFT, 0.01% flavopiridol, 0.1% DRB drops; n=10
Protocol: SYBR Green semi-quantitative real-time PCR was performed on DNA samples eluted from swabs taken from mouse eyes on days 2, 4, 7, 9, 11, 14, 18 and 25 post infection with 5×10^5 PFU/eye HSV-1 17syn+ using primers specific for HSV-1 DNA polymerase.
All experimental procedures were performed in accordance with the ARVO Resolution for the Use of Animals in Ophthalmic and Vision Research and were approved by the Xavier University Animal Care and Use Committee. Female 20 g Balb/c mice were obtained from Charles River Laboratories. Mice were allowed to equilibrate to their surroundings for 2 weeks and then were anesthetized by intramuscular administration of xylazine (6.6 mg/kg of body weight) and ketamine (100 mg/kg of body weight). The corneas were mildly scarified in a 2×2 cross-hatch pattern and each cornea was inoculated with 5×10^5 PFU of strain HSV 17syn+. […] DNA was collected by swabbing the eyes with filter paper, and the eyes were examined with a slit-lamp on PI days 2, 4, 7, 9, 11, 14, 18 and 25. Average neovascularization/eye was scored using the formula A=(C×0.4×L×π)/2 where C=clock hours of neovascularization; 30° arc is 1 (360° circle with a total of 12); L is the length of the longest neovessel, and A is the area of neovascularization. Students scored (by eye) the animals on the days indicated in a masked fashion using the slit-lamp, and images representative of each group were taken. Clinical scores based on epiphora, inflammation and discharge were calculated where 0=no manifestations, +1=slight manifestations, +2=moderate manifestations, and +3=severe manifestations. […] Ex ovo chick embryo chorioallantoic membrane collagen angiogenesis assays were performed using methods as previously described (Deryugina E I and Quigley J P. Chapter 2. Chick embryo chorioallantoic membrane models to quantify angiogenesis induced by inflammatory and tumor cells or purified effector molecules. Methods Enzymol. 444:21-41. 2008). […]

[3] = test system: HSV-1 17syn+ ocular infection; test: HSV-1 ocular infection mouse model, combined clinical score (epiphora, inflammation, discharge); assay type: in vivo, Balb/c mice; conditions: 1% TFT, 0.01% flavopiridol, 0.1% DRB drops
Protocol: The combined clinical score was determined based on epiphora (excess tearing), inflammation and discharge. […], +1=slight manifestations, +2=moderate manifestations, and +3=severe manifestations.
(§1) All experimental procedures were performed in accordance with the ARVO Resolution for the Use of Animals in Ophthalmic and Vision Research and were approved by the Xavier University Animal Care and Use Committee. Female 20 g Balb/c mice were obtained from Charles River Laboratories. Mice were allowed to equilibrate to their surroundings for 2 weeks and then were anesthetized by intramuscular administration of xylazine (6.6 mg/kg of body weight) and ketamine (100 mg/kg of body weight). The corneas were mildly scarified in a 2×2 cross-hatch pattern and each cornea was inoculated with 5×10^5 PFU of strain HSV 17syn+. […] DNA was collected by swabbing the eyes with filter paper, and the eyes were examined with a slit-lamp on PI days 2, 4, 7, 9, 11, 14, 18 and 25. Average neovascularization/eye was scored using the formula A=(C×0.4×L×π)/2 where C=clock hours of neovascularization; 30° arc is 1 (360° circle with a total of 12); L is the length of the longest neovessel, and A is the area of neovascularization. Students scored (by eye) the animals on the days indicated in a masked fashion using the slit-lamp, and images representative of each group were taken. Clinical scores based on epiphora, inflammation and discharge were calculated where 0=no manifestations, +1=slight manifestations, +2=moderate manifestations, and +3=severe manifestations. Mice were sacrificed with CO2 on day 25 post-infection, and eyes were harvested, sectioned, stained with hematoxylin and eosin (H&E) for histological analysis based on peripheral neovascularization and leukocytic infiltration where 0=clear eyes, 0.5=either peripheral neovascularization or leukocytic infiltration, and 1=both peripheral neovascularization and leukocytic infiltration. Ex ovo chick embryo chorioallantoic membrane collagen angiogenesis assays were performed using methods as previously described (Deryugina E I and Quigley J P. Chapter 2. Chick embryo chorioallantoic membrane models to quantify angiogenesis induced by inflammatory and tumor cells or purified effector molecules. Methods Enzymol. 444:21-41. 2008). Briefly, fertilized embryos (Charles River Laboratories, Charleston, S.C.) were incubated at 37.5° C. for 3 days, removed from their shell using a Dremel tool and placed into a covered weighing boat for 7 further days of incubation. […] Four collagen onplants were added per egg on at least 3 separate eggs. After three additional days of incubation, images were taken of each plug using a mini-Vid camera (LW Scientific; Lawrenceville, Ga.) and quantified in a masked fashion based on the percentage of grids that were positive for newly formed blood vessels.
FIG. 1B is the combined clinical score for the treatment groups based on epiphora (excess tearing), inflammation, and discharge.

[4] = Ocular safety and tolerability of the formulation, rabbit eyes; assay type: in vivo; conditions: dose and frequency of the HSV-1 corneal neovascularization study
Protocol: (§2) This was assessed with the dose and frequency that was used in the chemotherapeutic study of HSV-1 corneal neovascularization. FIG. 1A presents the results of slit-lamp examination (SLE) scores of the corneas of the four treatment groups beginning on post-inoculation day 2 and continuing to 25 days following infection.

[5] = test system: HSV-1 17syn+ induced corneal neovascularization; test: HSV-1 corneal neovascularization mouse model, slit-lamp examination score; assay type: in vivo, Balb/c mice; conditions: day 25 post infection; drops 4 times daily for 14 days; 1% TFT, 0.01% flavopiridol, 0.1% DRB; n=10
Protocol: Corneal neovascularization was determined in a masked fashion by slit lamp analysis on days 2, 4, 7, 9, 11, 14, 18, and 25 post-infection (PI) with 5×10^5 PFU/eye of HSV-1 17syn+ using the formula A=(C×0.4×L×n)/2 where C=clock hours of neovascularization; 30° arc is 1 (360° circle with a total of 12); L is the length of the longest neovessel, and A is the area of neovascularization.
All experimental procedures were performed in accordance with the ARVO Resolution for the Use of Animals in Ophthalmic and Vision Research and were approved by the Xavier University Animal Care and Use Committee. Female 20 g Balb/c mice were obtained from Charles River Laboratories. Mice were allowed to equilibrate to their surroundings for 2 weeks and then were anesthetized by intramuscular administration of xylazine (6.6 mg/kg of body weight) and ketamine (100 mg/kg of body weight). The corneas were mildly scarified in a 2×2 cross-hatch pattern and each cornea was inoculated with 5×10^5 PFU of strain HSV 17syn+. […] Average neovascularization/eye was scored using the formula A=(C×0.4×L×π)/2 where C=clock hours of neovascularization; 30° arc is 1 (360° circle with a total of 12); L is the length of the longest neovessel, and A is the area of neovascularization. Students scored (by eye) the animals on the days indicated in a masked fashion using the slit-lamp, and images representative of each group were taken. Clinical scores based on epiphora, inflammation and discharge were calculated where 0=no manifestations, +1=slight manifestations, +2=moderate manifestations, and +3=severe manifestations. […] Ex ovo chick embryo chorioallantoic membrane collagen angiogenesis assays were performed using methods as previously described (Deryugina E I and Quigley J P. Chapter 2. Chick embryo chorioallantoic membrane models to quantify angiogenesis induced by inflammatory and tumor cells or purified effector molecules. Methods Enzymol. 444:21-41. 2008). […]
This was assessed with the dose and frequency that was used in the chemotherapeutic study of HSV-1 corneal neovascularization. […]

[6] = Ocular safety and tolerability of the formulation, mouse eyes; assay type: in vivo; conditions: dose and frequency of the HSV-1 corneal neovascularization study
Protocol: as §2

[7] = test system: HSV-1 17syn+ ocular infection; test: HSV-1 ocular infection mouse model, H&E histology of eyes (leukocytic infiltration, peripheral neovascularization); assay type: in vivo, Balb/c mice; conditions: day 25 PI; for mouse eyes exhibiting corneal neovascularization / mouse eyes exhibiting leukocytic infiltration: H&E sections; for histological score (scale 0-1) for leukocytic infiltrate and peripheral neovascularization: H&E stained corneal sections
Protocol: Histological score (0-1) was calculated based on leukocytic infiltration and peripheral neovascularization of hematoxylin & eosin (H&E) stained slides of mouse eyes on day 25 PI.
as §1
To confirm the results in FIGS. 1A and 1B, sections of one cornea from each mouse was sectioned, stained with H&E and analyzed for leukocytic infiltrate and peripheral neovascularization of the cornea.

| Structure (SMILES) | concentration at which HSV-1 replication was significantly reduced [1] [µM] | IC50 ([1]; read-out: average IC50 of HSV-1 replication) [µM] | quantitative real-time PCR score (HSV-1 DNA) on ocular swabs [2] | combined clinical score (epiphora, inflammation, discharge; 0 to +3) ([3]; day 11) | combined clinical score (epiphora, inflammation, discharge; 0 to +3) ([3]; day 25) | safety and tolerability of the formulation in the eye [4] | slit-lamp examination (SLE) score of corneal neovascularization [5] | safety and tolerability of the formulation in the eye [6] | mouse eyes exhibiting corneal neovascularization [7] [%] | mouse eyes exhibiting leukocytic infiltration [7] [%] | histological score (scale 0-1) for leukocytic infiltrate and peripheral neovascularization [7] |
| --- | --- | --- | --- | --- | --- | --- | --- | --- | --- | --- | --- |
| OC[C@H]1O[C@@H](n2cnc3cc(Cl)c(Cl)cc32)[C@H](O)[C@@H]1O [DRB, 5,6-Dichlorobenzimidazole-1-β-D-ribofuranoside] | 25 | 86.7 | 0.042±0.60 | 0.00±0.0 | 0.042±0.60 | safe and well-tolerated | 0.042±0.60 | safe and well-tolerated | 0 | 10 | 0.25±0.134 |
| O=c1[nH]c(=O)n([C@H]2C[C@H](O)[C@@H](CO)O2)cc1C(F)(F)F [TFT, triflurothymidine] | – | – | 0.0±0.0 | 0.002±0.41 | 0.00±0.00 | – | 0.0±0.0 | – | 0 | 30 | 0.278±0.088 |
